Here are results for 8 molecules from PMC10682951, “Structure-function and rational design of a spider toxin Ssp1a at human voltage-gated sodium channel subtypes” (Frontiers in Pharmacology, 2023).

Bridge positions count the residues as written; N and C are the ends. Peptide text beside a SMILES is read from it.

Holding throughout (format): cell-based
One experiment addresses T1, hNaV1.2 (Homo sapiens, UniProt Q99250).
T1 construct: host or cells: HEK293
The experiment is described as follows: Automated whole-cell patch-clamp (QPatch 16X), hNaV1.2. The note with it: for IC50: HEK293 cells expressing hNaV1.2 + β1 subunit, QPatch 16X, holding −80 mV, step to 0 mV, peptide incubated 2 min, 0.1% BSA, mean, SEM and n (2-7). In outline:
(§1)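 HEK293 cells stably expressing the channel (human subtypes with β1 subunit), held at −80 mV; 2 min peptide pre-incubation, then 20 ms steps to 0 mV after a 200 ms −120 mV conditioning pulse. Extracellular pH 7.3 with 20 mM TEA-Cl, CsF-based pipette solution, 0.1% BSA; IC50 from four-parameter Hill fit.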

The target of another experiment is T2, hNaV1.7 (Homo sapiens, UniProt Q15858).
T2 construct: host or cells: HEK293
T2 sequence (Q15858 whole entry): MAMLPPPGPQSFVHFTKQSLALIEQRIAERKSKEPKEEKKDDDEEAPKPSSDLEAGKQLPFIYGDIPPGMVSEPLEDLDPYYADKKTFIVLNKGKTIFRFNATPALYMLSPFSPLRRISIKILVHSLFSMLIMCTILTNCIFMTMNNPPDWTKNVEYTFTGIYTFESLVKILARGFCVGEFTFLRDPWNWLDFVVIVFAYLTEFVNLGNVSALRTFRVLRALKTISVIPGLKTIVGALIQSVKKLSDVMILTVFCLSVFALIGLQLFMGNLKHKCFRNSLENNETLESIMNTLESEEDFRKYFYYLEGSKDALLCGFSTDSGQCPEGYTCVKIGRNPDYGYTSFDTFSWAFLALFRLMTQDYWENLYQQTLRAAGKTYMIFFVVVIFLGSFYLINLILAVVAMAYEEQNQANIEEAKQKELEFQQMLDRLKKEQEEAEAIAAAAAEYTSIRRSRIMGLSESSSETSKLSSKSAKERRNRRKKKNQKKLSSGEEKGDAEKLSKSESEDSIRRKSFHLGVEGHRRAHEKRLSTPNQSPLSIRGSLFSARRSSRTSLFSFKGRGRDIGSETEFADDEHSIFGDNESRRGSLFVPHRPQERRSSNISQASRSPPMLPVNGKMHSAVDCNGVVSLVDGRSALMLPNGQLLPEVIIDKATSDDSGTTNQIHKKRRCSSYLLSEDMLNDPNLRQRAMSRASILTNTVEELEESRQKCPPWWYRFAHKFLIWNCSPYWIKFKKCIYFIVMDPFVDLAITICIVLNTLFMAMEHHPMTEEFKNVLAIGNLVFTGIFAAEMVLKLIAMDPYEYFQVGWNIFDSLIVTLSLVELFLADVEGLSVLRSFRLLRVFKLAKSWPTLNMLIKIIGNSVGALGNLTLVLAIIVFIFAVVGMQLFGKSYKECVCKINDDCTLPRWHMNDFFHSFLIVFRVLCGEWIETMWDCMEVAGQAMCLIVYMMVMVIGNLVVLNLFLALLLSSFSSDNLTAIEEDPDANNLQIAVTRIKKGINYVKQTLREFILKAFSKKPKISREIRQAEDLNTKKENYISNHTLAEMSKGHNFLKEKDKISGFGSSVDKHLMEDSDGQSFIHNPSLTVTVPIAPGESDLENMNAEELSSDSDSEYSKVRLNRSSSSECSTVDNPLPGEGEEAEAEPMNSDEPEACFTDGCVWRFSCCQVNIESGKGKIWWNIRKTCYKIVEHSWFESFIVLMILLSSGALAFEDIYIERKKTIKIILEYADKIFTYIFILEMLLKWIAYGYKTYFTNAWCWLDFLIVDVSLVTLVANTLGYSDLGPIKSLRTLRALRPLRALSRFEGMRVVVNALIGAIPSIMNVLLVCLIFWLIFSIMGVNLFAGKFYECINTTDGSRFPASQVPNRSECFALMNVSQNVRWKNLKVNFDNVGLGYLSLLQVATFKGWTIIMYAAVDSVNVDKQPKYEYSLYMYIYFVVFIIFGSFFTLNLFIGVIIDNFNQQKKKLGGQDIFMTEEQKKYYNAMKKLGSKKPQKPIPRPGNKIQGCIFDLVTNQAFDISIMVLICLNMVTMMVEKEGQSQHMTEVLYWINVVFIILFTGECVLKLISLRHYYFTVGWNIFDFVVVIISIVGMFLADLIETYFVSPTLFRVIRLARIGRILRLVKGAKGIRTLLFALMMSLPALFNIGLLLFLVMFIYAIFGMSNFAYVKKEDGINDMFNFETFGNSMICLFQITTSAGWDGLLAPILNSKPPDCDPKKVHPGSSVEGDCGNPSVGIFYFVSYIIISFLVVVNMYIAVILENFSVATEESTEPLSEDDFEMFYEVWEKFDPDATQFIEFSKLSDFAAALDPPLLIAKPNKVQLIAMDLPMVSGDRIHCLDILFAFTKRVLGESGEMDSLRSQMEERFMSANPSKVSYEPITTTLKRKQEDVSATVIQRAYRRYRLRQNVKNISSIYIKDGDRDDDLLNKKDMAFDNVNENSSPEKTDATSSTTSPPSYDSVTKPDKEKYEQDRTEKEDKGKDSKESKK
T2 sequence (Q07699 19-218, further chain): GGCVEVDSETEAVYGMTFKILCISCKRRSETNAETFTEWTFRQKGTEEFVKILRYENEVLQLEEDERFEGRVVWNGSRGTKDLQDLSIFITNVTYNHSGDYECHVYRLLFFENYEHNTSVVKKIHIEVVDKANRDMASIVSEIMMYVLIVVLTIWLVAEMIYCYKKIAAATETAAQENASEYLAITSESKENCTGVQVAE
Nature of the experiment: Automated whole-cell patch-clamp (QPatch 16X), hNaV1.7. The note with it: for IC50: HEK293 cells expressing hNaV1.7 + β1 subunit, QPatch 16X, holding −80 mV, step to 0 mV, peptide incubated 2 min, 0.1% BSA, mean, SEM and n (3-9). In a few lines:
as §1

The next experiment has as its target T3, hNaV1.3 (Homo sapiens, UniProt Q9NY46).
T3 construct: host or cells: HEK293
Nature of the experiment: Automated whole-cell patch-clamp (QPatch 16X), hNaV1.3. The note with it: for IC50: HEK293 cells expressing hNaV1.3 + β1 subunit, QPatch 16X, holding −80 mV, step to 0 mV, peptide incubated 2 min, 0.1% BSA, mean, SEM and n (3-12). In outline: as §1

T1 sequence (Q07699 19-218): as the sequence (Q07699 19-218, further chain) above
T1 sequence (Q99250 whole entry): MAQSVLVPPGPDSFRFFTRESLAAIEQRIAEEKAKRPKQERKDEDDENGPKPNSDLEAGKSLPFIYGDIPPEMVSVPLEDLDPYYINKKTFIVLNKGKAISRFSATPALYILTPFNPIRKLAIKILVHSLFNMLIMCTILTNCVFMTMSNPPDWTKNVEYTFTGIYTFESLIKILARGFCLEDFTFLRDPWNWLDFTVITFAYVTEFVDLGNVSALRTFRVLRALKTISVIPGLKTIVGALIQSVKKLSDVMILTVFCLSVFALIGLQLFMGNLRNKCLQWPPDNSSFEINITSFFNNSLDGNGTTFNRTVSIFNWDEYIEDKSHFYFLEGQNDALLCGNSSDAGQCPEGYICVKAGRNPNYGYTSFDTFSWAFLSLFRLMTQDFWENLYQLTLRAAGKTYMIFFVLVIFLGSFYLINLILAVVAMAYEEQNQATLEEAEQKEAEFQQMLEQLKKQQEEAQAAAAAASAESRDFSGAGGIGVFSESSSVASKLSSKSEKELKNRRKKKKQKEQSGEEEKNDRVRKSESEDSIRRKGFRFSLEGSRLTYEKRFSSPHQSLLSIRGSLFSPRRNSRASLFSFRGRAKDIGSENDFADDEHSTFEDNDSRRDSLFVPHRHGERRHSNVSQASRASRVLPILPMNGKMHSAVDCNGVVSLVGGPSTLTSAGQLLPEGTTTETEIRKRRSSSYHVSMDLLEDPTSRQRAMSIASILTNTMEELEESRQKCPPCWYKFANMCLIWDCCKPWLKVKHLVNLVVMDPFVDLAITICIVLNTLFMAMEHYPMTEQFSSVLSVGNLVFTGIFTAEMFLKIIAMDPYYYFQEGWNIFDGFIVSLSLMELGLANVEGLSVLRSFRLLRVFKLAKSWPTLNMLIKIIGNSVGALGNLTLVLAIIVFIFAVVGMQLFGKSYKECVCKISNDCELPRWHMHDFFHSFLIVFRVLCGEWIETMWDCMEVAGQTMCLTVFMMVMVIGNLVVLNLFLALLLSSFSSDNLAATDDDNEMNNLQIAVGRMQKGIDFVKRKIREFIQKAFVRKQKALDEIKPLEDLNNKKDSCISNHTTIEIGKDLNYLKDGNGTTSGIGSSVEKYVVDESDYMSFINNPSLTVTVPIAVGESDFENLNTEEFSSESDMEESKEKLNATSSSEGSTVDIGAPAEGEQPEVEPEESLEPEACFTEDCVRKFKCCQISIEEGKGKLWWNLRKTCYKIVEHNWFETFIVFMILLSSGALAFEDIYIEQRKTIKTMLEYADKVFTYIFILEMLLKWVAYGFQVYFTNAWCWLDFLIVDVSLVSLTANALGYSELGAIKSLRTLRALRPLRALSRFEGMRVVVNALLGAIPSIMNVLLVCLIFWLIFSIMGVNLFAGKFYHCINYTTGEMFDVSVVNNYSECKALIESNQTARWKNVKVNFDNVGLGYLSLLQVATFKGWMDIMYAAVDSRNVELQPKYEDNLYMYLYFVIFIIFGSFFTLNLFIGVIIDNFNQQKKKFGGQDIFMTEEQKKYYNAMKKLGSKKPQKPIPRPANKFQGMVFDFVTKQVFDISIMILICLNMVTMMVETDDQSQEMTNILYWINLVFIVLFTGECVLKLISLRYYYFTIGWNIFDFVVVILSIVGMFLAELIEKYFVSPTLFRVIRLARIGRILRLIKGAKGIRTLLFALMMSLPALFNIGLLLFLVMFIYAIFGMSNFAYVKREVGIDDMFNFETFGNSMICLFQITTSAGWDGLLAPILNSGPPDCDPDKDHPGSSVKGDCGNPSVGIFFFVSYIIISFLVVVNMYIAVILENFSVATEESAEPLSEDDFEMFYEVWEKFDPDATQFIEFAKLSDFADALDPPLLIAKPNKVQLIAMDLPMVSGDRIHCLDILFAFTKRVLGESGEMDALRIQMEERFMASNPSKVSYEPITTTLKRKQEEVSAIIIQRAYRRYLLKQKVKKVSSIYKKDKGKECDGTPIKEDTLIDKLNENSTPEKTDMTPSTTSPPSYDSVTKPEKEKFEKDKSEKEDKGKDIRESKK

As a reminder, the IC50 is the concentration that gives 50% inhibition. For `CC(C)C[C@H](NC(=O)[C@H](CC(=O)O)NC(=O)[C@H](Cc1ccc(O)cc1)NC(=O)[C@H](CCCNC(=N)N)NC(=O)[C@@H]1CSSC[C@@H]2NC(=O)[C@H](CCCCN)NC(=O)[C@H](CC(N)=O)NC(=O)[C@H](CC(N)=O)NC(=O)[C@H](CC(N)=O)NC(=O)[C@@H]3CCCN3C(=O)[C@H](CC(=O)O)NC(=O)[C@@H]3CSSC[C@H](NC(=O)[C@H](C(C)C)NC(=O)[C@H](Cc4ccc(O)cc4)NC(=O)CNC(=O)[C@H](CCC(=O)O)NC(=O)[C@H](CSSC[C@H](NC(=O)[C@H](CC(=O)O)NC(=O)CN)C(=O)N[C@@H](CC(C)C)C(=O)NCC(=O)N[C@@H](Cc4c[nH]c5ccccc45)C(=O)N[C@@H](Cc4ccccc4)C(=O)N[C@@H](CO)C(=O)NCC(=O)N3)NC2=O)C(=O)N[C@@H](CO)C(=O)N[C@@H](Cc2c[nH]c3ccccc23)C(=O)N[C@@H](CCCCN)C(=O)N[C@@H](Cc2ccc(O)cc2)C(=O)N2CCC[C@H]2C(=O)N[C@@H](Cc2c[nH]c3ccccc23)C(=O)N1)C(=O)O` [H23S], the IC50 on hNaV1.2 is 156 nM; on hNaV1.7 it was 198 nM; at hNaV1.3, 679 nM.

As to `CC(C)C[C@H](NC(=O)[C@H](CC(=O)O)NC(=O)[C@H](Cc1ccc(O)cc1)NC(=O)[C@H](CCCNC(=N)N)NC(=O)[C@@H]1CSSC[C@@H]2NC(=O)[C@H](CCCCN)NC(=O)[C@H](CC(N)=O)NC(=O)[C@H](CC(N)=O)NC(=O)[C@H](CC(N)=O)NC(=O)[C@@H]3CCCN3C(=O)[C@H](CC(=O)O)NC(=O)[C@@H]3CSSC[C@H](NC(=O)[C@H](C(C)C)NC(=O)[C@H](Cc4ccc(O)cc4)NC(=O)CNC(=O)[C@H](CCC(=O)O)NC(=O)[C@H](CSSC[C@H](NC(=O)[C@H](CC(=O)O)NC(=O)CN)C(=O)N[C@@H](CC(C)C)C(=O)NCC(=O)N[C@@H](Cc4c[nH]c5ccccc45)C(=O)N[C@@H](Cc4ccccc4)C(=O)N[C@@H](CO)C(=O)NCC(=O)N3)NC2=O)C(=O)N[C@@H](Cc2c[nH]cn2)C(=O)N[C@@H](Cc2c[nH]c3ccccc23)C(=O)N[C@@H](C)C(=O)N[C@@H](Cc2ccc(O)cc2)C(=O)N2CCC[C@H]2C(=O)N[C@@H](Cc2c[nH]c3ccccc23)C(=O)N1)C(=O)O` [K25A] (H-GDCLGWFSGCDPNNNKCCEGYVCHWAYPWCRYDL-OH; disulfide 3-18, 10-23, 17-30 (inferred); N-terminus and C-terminus assumed), the half-inhibitory concentration (IC50) at hNaV1.2, on hNaV1.7 and on hNaV1.3 was greater than 1000 nM each time. Also, the “Loss (reduction) in potency vs rSsp1a at hNaV1.2” value on hNaV1.2 (relative to wild type rSsp1a) is on record as no less than 10 fold. Moreover, the “Loss (reduction) in potency vs rSsp1a at hNaV1.7” value at hNaV1.7 (relative to wild type rSsp1a) is given as no less than 10 fold.

`CC(C)C[C@H](NC(=O)[C@H](CC(=O)O)NC(=O)[C@H](Cc1ccc(O)cc1)NC(=O)[C@H](CCCNC(=N)N)NC(=O)[C@@H]1CSSC[C@@H]2NC(=O)[C@H](CCCCN)NC(=O)[C@H](CC(N)=O)NC(=O)[C@H](CC(N)=O)NC(=O)[C@H](CC(N)=O)NC(=O)[C@@H]3CCCN3C(=O)[C@H](CC(=O)O)NC(=O)[C@@H]3CSSC[C@H](NC(=O)[C@H](C(C)C)NC(=O)[C@H](Cc4ccc(O)cc4)NC(=O)CNC(=O)[C@H](CCC(=O)O)NC(=O)[C@H](CSSC[C@H](NC(=O)[C@H](CC(=O)O)NC(=O)CN)C(=O)N[C@@H](C)C(=O)NCC(=O)N[C@@H](Cc4c[nH]c5ccccc45)C(=O)N[C@@H](Cc4ccccc4)C(=O)N[C@@H](CO)C(=O)NCC(=O)N3)NC2=O)C(=O)N[C@@H](Cc2c[nH]cn2)C(=O)N[C@@H](Cc2c[nH]c3ccccc23)C(=O)N[C@@H](CCCCN)C(=O)N[C@@H](Cc2ccc(O)cc2)C(=O)N2CCC[C@H]2C(=O)N[C@@H](Cc2c[nH]c3ccccc23)C(=O)N1)C(=O)O` [L3A]: the figures for the IC50 on hNaV1.2, on hNaV1.7 and on hNaV1.3 were 154 nM, 170 nM and 311 nM, respectively.

On to `CC(C)C[C@@H]1NC(=O)[C@@H](NC(=O)[C@H](CC(=O)O)NC(=O)CN)CSSC[C@@H]2NC(=O)[C@@H]3CSSC[C@@H](C(=O)N[C@@H](CCCNC(=N)N)C(=O)N[C@@H](Cc4ccc(O)cc4)C(=O)N[C@@H](CC(=O)O)C(=O)N[C@@H](C)C(=O)O)NC(=O)[C@H](Cc4c[nH]c5ccccc45)NC(=O)[C@@H]4CCCN4C(=O)[C@H](Cc4ccc(O)cc4)NC(=O)[C@H](CCCCN)NC(=O)[C@H](Cc4c[nH]c5ccccc45)NC(=O)[C@H](Cc4c[nH]cn4)NC(=O)[C@H](CSSC[C@H](NC(=O)CNC(=O)[C@H](CO)NC(=O)[C@H](Cc4ccccc4)NC(=O)[C@H](Cc4c[nH]c5ccccc45)NC(=O)CNC1=O)C(=O)N[C@@H](CC(=O)O)C(=O)N1CCC[C@H]1C(=O)N[C@@H](CC(N)=O)C(=O)N[C@@H](CC(N)=O)C(=O)N[C@@H](CC(N)=O)C(=O)N[C@@H](CCCCN)C(=O)N3)NC(=O)[C@H](C(C)C)NC(=O)[C@H](Cc1ccc(O)cc1)NC(=O)CNC(=O)[C@H](CCC(=O)O)NC2=O` [L33A], for which the values for the IC50 on hNaV1.2, on hNaV1.7 and at hNaV1.3 were 396 nM, 448 nM and greater than 3000 nM, respectively.

With `CC(C)C[C@H](NC(=O)[C@H](CC(=O)O)NC(=O)[C@H](Cc1ccc(O)cc1)NC(=O)[C@H](CCCNC(=N)N)NC(=O)[C@@H]1CSSC[C@@H]2NC(=O)[C@H](CCCCN)NC(=O)[C@H](CC(N)=O)NC(=O)CNC(=O)[C@H](CC(N)=O)NC(=O)[C@@H]3CCCN3C(=O)[C@H](CC(=O)O)NC(=O)[C@@H]3CSSC[C@H](NC(=O)[C@H](C(C)C)NC(=O)[C@H](Cc4ccc(O)cc4)NC(=O)CNC(=O)[C@H](CCC(=O)O)NC(=O)[C@H](CSSC[C@H](NC(=O)[C@H](CC(=O)O)NC(=O)CN)C(=O)N[C@@H](CC(C)C)C(=O)NCC(=O)N[C@@H](Cc4c[nH]c5ccccc45)C(=O)N[C@@H](Cc4ccccc4)C(=O)N[C@@H](CO)C(=O)NCC(=O)N3)NC2=O)C(=O)N[C@@H](Cc2c[nH]cn2)C(=O)N[C@@H](Cc2c[nH]c3ccccc23)C(=O)N[C@@H](CCCCN)C(=O)N[C@@H](Cc2ccc(O)cc2)C(=O)N2CCC[C@H]2C(=O)N[C@@H](Cc2c[nH]c3ccccc23)C(=O)N1)C(=O)O` [N13G], the IC50 turned out to be 280 nM at hNaV1.2, 287 nM on hNaV1.7 and 287 nM at hNaV1.3.

As for `CC(C)C[C@H](NC(=O)[C@H](CC(=O)O)NC(=O)[C@H](Cc1ccc(O)cc1)NC(=O)[C@H](CCCNC(=N)N)NC(=O)[C@@H]1CSSC[C@@H]2NC(=O)[C@H](CCCCN)NC(=O)[C@H](C)NC(=O)[C@H](CC(N)=O)NC(=O)[C@H](CC(N)=O)NC(=O)[C@@H]3CCCN3C(=O)[C@H](CC(=O)O)NC(=O)[C@@H]3CSSC[C@H](NC(=O)[C@H](C(C)C)NC(=O)[C@H](Cc4ccc(O)cc4)NC(=O)CNC(=O)[C@H](CCC(=O)O)NC(=O)[C@H](CSSC[C@H](NC(=O)[C@H](CC(=O)O)NC(=O)CN)C(=O)N[C@@H](CC(C)C)C(=O)NCC(=O)N[C@@H](Cc4c[nH]c5ccccc45)C(=O)N[C@@H](Cc4ccccc4)C(=O)N[C@@H](CO)C(=O)NCC(=O)N3)NC2=O)C(=O)N[C@@H](Cc2c[nH]cn2)C(=O)N[C@@H](Cc2c[nH]c3ccccc23)C(=O)N[C@@H](CCCCN)C(=O)N[C@@H](Cc2ccc(O)cc2)C(=O)N2CCC[C@H]2C(=O)N[C@@H](Cc2c[nH]c3ccccc23)C(=O)N1)C(=O)O` [N14A], the IC50 at hNaV1.2 turned out to be 224 nM; at hNaV1.7, 252 nM; at hNaV1.3, 784 nM.

The inhibition is the share of the control response that was lost under treatment. On to `CC(C)C[C@H](NC(=O)[C@H](CC(=O)O)NC(=O)[C@H](Cc1ccc(O)cc1)NC(=O)[C@H](CCCNC(=N)N)NC(=O)[C@@H]1CSSC[C@@H]2NC(=O)[C@H](CCCCN)NC(=O)[C@H](CC(=O)O)NC(=O)[C@H](CC(N)=O)NC(=O)[C@H](CC(N)=O)NC(=O)[C@@H]3CCCN3C(=O)[C@H](CC(=O)O)NC(=O)[C@@H]3CSSC[C@H](NC(=O)[C@H](C(C)C)NC(=O)[C@H](Cc4ccc(O)cc4)NC(=O)CNC(=O)[C@H](CCC(=O)O)NC(=O)[C@H](CSSC[C@H](NC(=O)[C@H](CC(=O)O)NC(=O)CN)C(=O)N[C@@H](CC(C)C)C(=O)NCC(=O)N[C@@H](Cc4c[nH]c5ccccc45)C(=O)N[C@@H](Cc4ccccc4)C(=O)N[C@@H](CO)C(=O)NCC(=O)N3)NC2=O)C(=O)N[C@@H](Cc2c[nH]cn2)C(=O)N[C@@H](Cc2c[nH]c3ccccc23)C(=O)N[C@@H](CCCCN)C(=O)N[C@@H](Cc2ccc(O)cc2)C(=O)N[C@@H](CCCNC(=N)N)C(=O)N[C@@H](Cc2c[nH]c3ccccc23)C(=O)N1)C(=O)O` [N14D/P27R] (H-GDCLGWFSGCDPNNDKCCEGYVCHWKYRWCRYDL-OH; disulfide 3-18, 10-23, 17-30), for which the IC50 on hNaV1.2 was 87 nM; on hNaV1.7 it was 57 nM; at hNaV1.3, greater than 3000 nM. Further, at hNaV1.3 (3 µM peptide, QPatch, read-out: Inhibition (block) of hNaV1.3 at 3 µM), the inhibition at 3 µM is roughly 40%.

Turning to `CC(C)C[C@H](NC(=O)[C@H](CC(=O)O)NC(=O)[C@H](Cc1ccc(O)cc1)NC(=O)[C@H](CCCNC(=N)N)NC(=O)[C@@H]1CSSC[C@@H]2NC(=O)[C@H](CCCCN)NC(=O)[C@H](CC(=O)O)NC(=O)[C@H](CC(N)=O)NC(=O)[C@H](CC(N)=O)NC(=O)[C@@H]3CCCN3C(=O)[C@H](CC(=O)O)NC(=O)[C@@H]3CSSC[C@H](NC(=O)[C@H](C(C)C)NC(=O)[C@H](Cc4ccc(O)cc4)NC(=O)CNC(=O)[C@H](CCC(=O)O)NC(=O)[C@H](CSSC[C@H](NC(=O)[C@H](CC(=O)O)NC(=O)CN)C(=O)N[C@@H](CC(C)C)C(=O)NCC(=O)N[C@@H](Cc4c[nH]c5ccccc45)C(=O)N[C@@H](Cc4ccccc4)C(=O)N[C@@H](CO)C(=O)NCC(=O)N3)NC2=O)C(=O)N[C@@H](Cc2c[nH]cn2)C(=O)N[C@@H](Cc2c[nH]c3ccccc23)C(=O)N[C@@H](CCCCN)C(=O)N[C@@H](Cc2ccc(O)cc2)C(=O)N2CCC[C@H]2C(=O)N[C@@H](Cc2c[nH]c3ccccc23)C(=O)N1)C(=O)O` [N14D], the half-inhibitory concentration (IC50) on hNaV1.2 was 126 nM; at hNaV1.7 it was greater than 3000 nM; at hNaV1.3 it was 900 nM. In addition, the “hNaV1.2-selectivity against hNaV1.3” value on hNaV1.2 (ratio of potencies hNaV1.3 / hNaV1.2) is given as 7 fold. Besides, at hNaV1.2 (ratio of potencies hNaV1.7 / hNaV1.2), the “hNaV1.2-selectivity against hNaV1.7” value is reported as greater than 24 fold.
